The source of these data is patent US8426429B2, “2-amino-quinazoline derivatives useful as inhibitors of β-secretase (BACE)” (Jansssen Pharmaceutica N.V., priority 2004, dated 2013).

The test concerns the target T1, β-secretase (BACE) (Homo sapiens, UniProt P56817).
T1 construct: purchased Panvera
The test can be described thus: BACE FS1 % Inhibition Assay. The class given is biochemical. As to the method: The following reagents were used in this assay: sodium acetate, PEG8000 (Sigma), DMSO, HEPES, FS1 substrate [[…]] […] The FS1-substrate stock solution was prepared in DMSO as a 10 mg/mL solution. The FS1-substrate working solution was prepared by diluting the 10 mg/mL stock solution with substrate assay buffer to a final concentration of 300 μg/mL. The β-secretase (BACE) working solution was prepared by diluting a 0.83 mg/mL BACE stock solution with enzyme assay buffer to a final concentration of 4 μg/mL. Test compounds were dissolved in DMSO to 10 mM. […] The screening procedure for this assay was as follows: 15 μL of BACE working solution was pipetted into each well of a 96-well plate. To each well was then pipetted 2 μL of test compound at the selected concentration. Test compound and BACE were then mixed with a pipettor and incubated for 20 min at room temperature. To each well was then added 10 μL of the FS1 substrate working solution. The plates were then incubated for 1 hour at room temperature. […] The procedure for the blank was as follows. 15 μL of assay buffer was pipetted into each well to be used as a blank control. To each well was then added 2 μL of vehicle and 10 μL of FS1-substrate working solution. The plates were then incubated for 1 hour at room temperature. […] The procedure for the positive control was as follows: 15 μL of BACE working solution was pipetted into each well to be used as a positive control. To each well was then pipetted 2 μL of vehicle. Vehicle and BACE were then mixed with a pipettor and incubated for 20 min at room temperature. To each well was then added 10 μL of the FS1 substrate working solution. The plates were then incubated for 1 hour at room temperature. […] For test compounds, % inhibition was determined at each concentration as follows: [formula]

T1 sequence (P56817 46-501): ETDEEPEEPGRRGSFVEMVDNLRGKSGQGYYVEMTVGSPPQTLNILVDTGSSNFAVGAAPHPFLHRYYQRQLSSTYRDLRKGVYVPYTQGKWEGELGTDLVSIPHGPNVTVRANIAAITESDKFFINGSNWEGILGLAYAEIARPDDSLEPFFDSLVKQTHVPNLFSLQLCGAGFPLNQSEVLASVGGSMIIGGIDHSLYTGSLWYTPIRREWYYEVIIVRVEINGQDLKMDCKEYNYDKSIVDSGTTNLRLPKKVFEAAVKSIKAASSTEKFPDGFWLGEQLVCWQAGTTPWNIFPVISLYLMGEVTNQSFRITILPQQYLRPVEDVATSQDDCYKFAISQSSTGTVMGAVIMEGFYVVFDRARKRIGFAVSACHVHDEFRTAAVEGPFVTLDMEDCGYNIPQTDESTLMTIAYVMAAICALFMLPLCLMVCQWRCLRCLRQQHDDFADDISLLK

Regarding `CCCCCC1CCC(C(=O)NCCN2Cc3cc(Oc4ccccc4)ccc3N=C2N)CC1` (stereo not shown) [Compound 182], the “% Inhibition (FS)” value is, setting by setting: (0.3 μM test compound) below 30%; (1 μM test compound) below 30%; (3 μM test compound) 38%.
Turning to `NC1=Nc2ccc(Oc3ccccc3)cc2CN1C1CCN(C(=O)C23CC4CC(CC(C4)C2)C3)CC1` [Compound 524], the “% Inhibition (FS)” value is given as below 30% (0.3 μM test compound), below 30% (1 μM test compound) and 44% (3 μM test compound).
Regarding `CCCc1cccc(C)c1Oc1ccc2c(c1)CN(Cc1cccc(C(=O)N(C)C3CCCCC3)c1)C(N)=N2` [Compound 482], the “% Inhibition (FS)” value is, setting by setting: (0.3 μM test compound) below 30%; (1 μM test compound) below 30%; (3 μM test compound) 43%.
With `NC1=Nc2ccc(-c3ccccc3F)cc2CN1CCNC(=O)C1CCC1` [Compound 642], the “% Inhibition (FS)” value is, setting by setting: (0.3 μM test compound) 37%; (1 μM test compound) 63%; (3 μM test compound) 96%.
As to `NC1=Nc2ccc(Oc3ccccc3)cc2CN1C(CNC(=O)CC1CCCC1)C1CCCCC1` (stereo not shown) [Compound 311], the “% Inhibition (FS)” value came out at 74% (0.3 μM test compound), 108% (1 μM test compound) and 118% (3 μM test compound).
As for `COc1ccccc1-c1ccc2c(c1)CN(CCNC(=O)C1CCC(C(F)(F)F)CC1)C(N)=N2` (stereo not shown) [Compound 698], the “% Inhibition (FS)” value is on record as below 30% (0.3 μM compound, FS1 substrate); below 30% (1 μM compound, FS1 substrate); 64% (3 μM compound, FS1 substrate).
As to `NC1=Nc2ccc(Oc3ccccc3)cc2CN1Cc1cccc(C(=O)NC2CCCCC2)c1` [Compound 451], the “% Inhibition (FS)” value is recorded as below 30% (0.3 μM test compound), below 30% (1 μM test compound) and below 30% (3 μM test compound).
Regarding `COC1CCCC(C(=O)NCCN2Cc3cc(C4=CCCC4)ccc3N=C2N)C1` (stereo not shown) [Compound 706], the “% Inhibition (FS)” value reads like this: (0.3 μM compound, FS1 substrate) below 30%; (1 μM compound, FS1 substrate) below 30%; (3 μM compound, FS1 substrate) below 30%.
Take `CCCC(CNC(=O)C1CCCCC1)N1Cc2cc(Oc3ccccc3)ccc2N=C1N` (stereo not shown) [Compound 601]: the “% Inhibition (FS)” value is, setting by setting: (0.3 μM test compound, 0.3 µM) 105%; (1 μM test compound, 1 µM) 115%; (3 μM test compound, 3 µM) 121%.
Regarding `CN(C(=O)CCC(c1ccc(Cl)cc1)N1Cc2cc(Oc3ccccc3)ccc2N=C1N)C1CCCCC1` (stereo not shown) [Compound 297], the “% Inhibition (FS)” value runs as follows: (0.3 μM test compound) below 30%; (1 μM test compound) 76%; (3 μM test compound) 109%.
For `CNC(=O)C1CCC(N(C)C(=O)CCC(C2CCCCC2)N2Cc3cc(Oc4ccccc4)ccc3N=C2N)CC1` (stereo not shown) [Compound 765], the “% Inhibition (FS)” value runs as follows: (0.3 μM compound, FS1 substrate) below 30%; (1 μM compound, FS1 substrate) 56%; (3 μM compound, FS1 substrate) 97%.
Take `NC1=Nc2ccc(Oc3ccccc3)cc2CN1CCNC(=O)C1CC1c1ccccc1` (stereo not shown) [Compound 139]: the “% Inhibition (FS)” value by setting is: (3 μM test compound) below 30%; (10 μM test compound) 61%.
For `CCOC(=O)C1CCC(N(C)C(=O)CCC(C2CCCCC2)N2Cc3cc(Oc4ccccc4)ccc3N=C2N)CC1` (stereo not shown) [Compound 763], the “% Inhibition (FS)” value is, setting by setting: (0.3 μM compound, FS1 substrate, 0.3 µM) below 30%; (1 μM compound, FS1 substrate, 1 µM) 84%.
For `CN(C(=O)c1ccccc1CN1Cc2cc(Oc3ccccc3)ccc2N=C1N)C1CCCCC1` [Compound 463], the “% Inhibition (FS)” value is below 30% (0.3 μM test compound), below 30% (1 μM test compound) and below 30% (3 μM test compound).
In the case of `NC1=Nc2ccc(Oc3ccccc3)cc2CN1C(CCCC(=O)N1CCCCC1)CCC(=O)N1CCCCC1` (stereo not shown) [Compound 452], the “% Inhibition (FS)” value runs as follows: (0.3 μM test compound) below 30%; (1 μM test compound) 42%; (3 μM test compound) 78%.
For `NC1=Nc2ccc(-c3cccc(CO)c3)cc2CN1CCNC(=O)Cc1ccccc1` [Compound 599], in that order: below 30%, below 30% and 65%.
For `CS(=O)(=O)Nc1ccccc1-c1ccc2c(c1)CN(CCNC(=O)C1CCCCC1)C(N)=N2` [Compound 539], the “% Inhibition (FS)” value is on record as below 30% (0.3 μM test compound), below 30% (1 μM test compound) and below 30% (3 μM test compound).
In the case of `NC1=Nc2ccc(-c3ccc4ccccc4c3)cc2CN1CCNC(=O)C12CC3CC(CC(C3)C1)C2` [Compound 665], the “% Inhibition (FS)” value reads like this: (0.3 μM compound, FS1 substrate) 35%; (1 μM compound, FS1 substrate) below 30%; (3 μM compound, FS1 substrate) below 30%.
